From patent US20250223268A1, “4-Methylsulfonylbenzamide Compound, Preparation Method, Herbicidal Composition And Use” (Jiangsu Flag Chemical Industry Co., Ltd., priority 2022, published 2025)

Assays:
Assay in all cases: Greenhouse herbicidal activity assay, post-emergence
Assay type in all cases: in vivo
Conditions in all cases: Post-emergence test, rate 150 g a.i./hm^2, grade by fresh weight inhibition rate
Echinochloa crusgalli = tested on: Echinochloa crusgalli
How it was run: (§1)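 Weeds and crops grown in pots of nutrient soil in a growth chamber to the 3-6 leaf stage, then foliar-sprayed and air-dried. Fresh weight inhibition scored 14-21 days after treatment and graded A (≥80%) through E (<20%).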

Cyperus iria = tested on: Cyperus iria
How it was run: as §1

Leptochloa chinensis = tested on: Leptochloa chinensis
How it was run: as §1

Eclipta prostrata = tested on: Eclipta prostrata
How it was run: as §1

Digitaria sanguinalis = tested on: Digitaria sanguinalis
How it was run: as §1

Compound	Control efficacy grade, Echinochloa crusgalli (Echinochloa crusgalli)	Control efficacy grade, Cyperus iria (Cyperus iria)	Control efficacy grade, Leptochloa chinensis (Leptochloa chinensis)	Control efficacy grade, Eclipta prostrata (Eclipta prostrata)	Control efficacy grade, Digitaria sanguinalis (Digitaria sanguinalis)	pest or weed control at 150 g/ha (Echinochloa crusgalli; Echinochloa crus-galli, read-out: Control efficacy grade, Echinochloa crusgalli)	pest or weed control at 150 g/ha (Cyperus iria; Cyperus iria, read-out: Control efficacy grade, Cyperus iria)	pest or weed control at 150 g/ha (Leptochloa chinensis; Dinebra chinensis, read-out: Control efficacy grade, Leptochloa chinensis)	pest or weed control at 150 g/ha (Eclipta prostrata; Eclipta prostrata, read-out: Control efficacy grade, Eclipta prostrata)	pest or weed control at 150 g/ha (Digitaria sanguinalis; Digitaria sanguinalis, read-out: Control efficacy grade, Digitaria sanguinalis)
CCCCSc1c(S(C)(=O)=O)ccc(C(=O)Nc2nnco2)c1Cl [Compound 3-277]	A (Fresh weight inhibition rate≥80% to 100%)	A (Fresh weight inhibition rate≥80% to 100%)	A (Fresh weight inhibition rate≥80% to 100%)	A (Fresh weight inhibition rate≥80% to 100%)	C (Fresh weight inhibition rate≥40% to <60%)	–	–	–	–	–
Cc1nnc(NC(=O)c2ccc(S(C)(=O)=O)c([S+]([O-])C3CCCCC3)c2Cl)o1 (racemic) [Compound 3-93]	A (Fresh weight inhibition rate≥80% to 100%)	A (Fresh weight inhibition rate≥80% to 100%)	A (Fresh weight inhibition rate≥80% to 100%)	A (Fresh weight inhibition rate≥80% to 100%)	A (Fresh weight inhibition rate≥80% to 100%)	–	–	–	–	–
CCc1nnc(NC(=O)c2ccc(S(C)(=O)=O)c([S+]([O-])CC3CC3)c2Cl)o1 (racemic) [Compound 3-415]	A (Fresh weight inhibition rate≥80% to 100%)	A (Fresh weight inhibition rate≥80% to 100%)	A (Fresh weight inhibition rate≥80% to 100%)	A (Fresh weight inhibition rate≥80% to 100%)	A (Fresh weight inhibition rate≥80% to 100%)	–	–	–	–	–
CCCCSc1c(S(C)(=O)=O)ccc(C(=O)Nc2nnnn2C)c1Cl [Compound 1-11]	A (Fresh weight inhibition rate≥80% to 100%)	A (Fresh weight inhibition rate≥80% to 100%)	A (Fresh weight inhibition rate≥80% to 100%)	A (Fresh weight inhibition rate≥80% to 100%)	A (Fresh weight inhibition rate≥80% to 100%)	–	–	–	–	–
CCC(C)[S+]([O-])c1c(S(C)(=O)=O)ccc(C(=O)Nc2nnc(C)o2)c1Cl (mixture of isomers) [Compound 3-19]	A (Fresh weight inhibition rate≥80% to 100%)	A (Fresh weight inhibition rate≥80% to 100%)	A (Fresh weight inhibition rate≥80% to 100%)	A (Fresh weight inhibition rate≥80% to 100%)	A (Fresh weight inhibition rate≥80% to 100%)	–	–	–	–	–
CS(=O)(=O)c1ccc(C(=O)Nc2nnco2)c(Cl)c1SCC(F)F [Compound 3-328]	A (Fresh weight inhibition rate≥80% to 100%)	A (Fresh weight inhibition rate≥80% to 100%)	A (Fresh weight inhibition rate≥80% to 100%)	A (Fresh weight inhibition rate≥80% to 100%)	A (Fresh weight inhibition rate≥80% to 100%)	–	–	–	–	–
C=C(C)CSc1c(S(C)(=O)=O)ccc(C(=O)Nc2nnc(C)o2)c1Cl [Compound 3-142]	A (Fresh weight inhibition rate≥80% to 100%)	A (Fresh weight inhibition rate≥80% to 100%)	A (Fresh weight inhibition rate≥80% to 100%)	A (Fresh weight inhibition rate≥80% to 100%)	A (Fresh weight inhibition rate≥80% to 100%)	–	–	–	–	–
CS(=O)(=O)c1ccc(C(=O)Nc2nnc(C3CC3)o2)c(Cl)c1[S+]([O-])CC1CC1 (racemic) [Compound 3-647]	A (Fresh weight inhibition rate≥80% to 100%)	A (Fresh weight inhibition rate≥80% to 100%)	A (Fresh weight inhibition rate≥80% to 100%)	A (Fresh weight inhibition rate≥80% to 100%)	A (Fresh weight inhibition rate≥80% to 100%)	–	–	–	–	–
CC(C)Sc1c(S(C)(=O)=O)ccc(C(=O)Nc2ncnn2C)c1Cl [Compound 2-6, 2-chloro-3-(isopropylthio)-N-(1-methyl-1H-1,2,4-triazol-5-yl)-4-(methylsulfonyl)benzamide]	–	–	–	–	–	80 to 100%	80 to 100%	80 to 100%	80 to 100%	80 to 260%
Cc1nnc(NC(=O)c2ccc(S(C)(=O)=O)c(SC3CCCC3)c2Cl)o1 [Compound 3-87]	A (Fresh weight inhibition rate≥80% to 100%)	A (Fresh weight inhibition rate≥80% to 100%)	A (Fresh weight inhibition rate≥80% to 100%)	A (Fresh weight inhibition rate≥80% to 100%)	A (Fresh weight inhibition rate≥80% to 100%)	–	–	–	–	–
Cn1ncnc1NC(=O)c1ccc(S(C)(=O)=O)c([S+]([O-])CC2CC2)c1Cl (racemic) [Compound 2-28]	A (Fresh weight inhibition rate≥80% to 100%)	A (Fresh weight inhibition rate≥80% to 100%)	A (Fresh weight inhibition rate≥80% to 100%)	A (Fresh weight inhibition rate≥80% to 100%)	A (Fresh weight inhibition rate≥80% to 100%)	–	–	–	–	–
CCc1nnc(NC(=O)c2ccc(S(C)(=O)=O)c(SCC(F)(F)F)c2Cl)o1 [Compound 3-439]	A (Fresh weight inhibition rate≥80% to 100%)	A (Fresh weight inhibition rate≥80% to 100%)	A (Fresh weight inhibition rate≥80% to 100%)	A (Fresh weight inhibition rate≥80% to 100%)	A (Fresh weight inhibition rate≥80% to 100%)	–	–	–	–	–
Cc1nnc(NC(=O)c2ccc(S(C)(=O)=O)c([S+]([O-])CC3CC3)c2Cl)o1 (racemic) [Compound 3-38]	A (Fresh weight inhibition rate≥80% to 100%)	A (Fresh weight inhibition rate≥80% to 100%)	A (Fresh weight inhibition rate≥80% to 100%)	A (Fresh weight inhibition rate≥80% to 100%)	A (Fresh weight inhibition rate≥80% to 100%)	–	–	–	–	–
